Reference: patent US12239780B2, “Bi-dose nasal spray” (AKROSWISS AG, priority 2018, dated 2025)

Legend:
claustrophobic patients = settings: cited from earlier work
[1] = aqueous solution, depending on content of active agent; cited from earlier work
[2] = nasal administration, no first pass effect; cited from earlier work
[3] = Bioavailability and plasma concentration after midazolam from the bi-dose nasal spray

## Cc1ncc2n1-c1ccc(Cl)cc1C(c1ccccc1F)=NC2 [midazolam, 8-chloro-6-(2-fluorophenyl)-1-methyl-4H-imidazole[1,5-a][1,4]-benzodiazepine]
Claustrophobic patients; 72 patients, oral 7.5 mg (TG1) or intranasal 1.0 to 2.0 mg (TG2)
  MRI examinations carried out successfully and without relevant side effects: 97%
Claustrophobic patients; intranasal 1-2 mg versus oral 7.5 mg, p<0.001
  MRI imaging quality, intranasal group TG2 compared to oral group TG1: significantly higher
Claustrophobic patients; intranasal 1-2 mg versus oral 7.5 mg
  anxiolytic effect of nasally administered versus orally administered form: significantly superior
[1]
  pH below which the solution of the active agent is stable (precipitates at higher pH): < 3.8 pH
[2]
  bioavailability using a nasal spray: about 80%
[3]; bi-dose nasal spray, intranasal
  time after administration at which a significant plasma concentration is achieved: 2 min
[3]; human, plasma, inhaled or intranasal
  bioavailability: > 83%
